Experimental data reported in US6303621A, “Method for treating cancers using a diiodo thyronine analogue having no significant hormonal activity and a vinca alkaloid and compositions comprising the same” (priority 1999, dated 2001).
“Also recorded” adds a separate entry of the source.

Legend:
[1] = tested on: biosynthetic pathways of DNA, RNA or proteins; assay: Metabolic action and biosynthetic pathways of DNA, RNA or proteins
[2] = tested on: thyroid; settings: rats; as compared to thyroxine; cited from earlier work
[3] = tested on: microtubules; assay: Microtubule binding
[4] = tested on: MDA-MB-231 human mammary cancer cells; assay: Cell growth kinetics, median effect and isobologram; assay type: cell-based; settings: 0.75 μM DIME (or DIPE) or 1-2 nM vincristine alone
Procedure: (§1) c. MDA-MB-231 human mammary cancer cells were cultured and treated as reported previously by Mendeleyev et al., International Journal of Oncology 10:689-695 (1997) and Zhen et al., International Journal of Oncology 10:689-695 (1997). For the assay of cell growth kinetics cells, were seeded into 2cm^2 wells (24-well plates) at a density of 8×10^3 /cm^2 at the time of seeding. Vincristine (or vinblastine) and DIME (or DIPE) were added from DMSO dilutions (1-2 μl/ 500 μl culture mediim) either from separate drug solutions or for the construction of median effect plot (FIG. 1) from a pre-made mixture of both drugs (e.g. 0.75 μM DIME+2 nM vincristine) and simultaneous dilutions thereof (Chou et al. Eur. J. Biochem. 115: 207-216 (1981)). The cultures were incubated at 37° C. for 4 days and growth rates, leading to near confluency in drug-free controls, were monitored by cell counting in a haemocytometer after detachment by trypsin treatment Mendeleyev et al., International Journal of Oncology 10:689-695 (1997) and Zhen et al., International Journal of Oncology 10:689-695 (1997). Mathematical analysis of growth curves and median effects and isobolograms were carried out by published procedures (Chou et al. J. Theor. Biol. 65: 345-356 (1977), Chou et al. Eur. J. Biochem. 115: 207-216 (1981) and Chou et al. Adv. in Enzyme Regulation 22:27-55 (1984)) and error bars indicate SD=Σx^2 +L -(Σx)^2 /n where X is the numerical results with n=3-5.
Kinetics of vincristine-DIME interactions: Interpretation of conventional isobolograms, consisting of plots of I50 values of two drugs alone and in combination is valid only if it is proven kinetically that both drugs bind at mutually exclusive sites.
Isobologram analysis of the combined action of DIME and vincristine is illustrated in FIG. 2, and it is evident that the action of the two drugs in combination exceed an additive effect, which is depicted by a concave curve, contrasting with additive action, which would display a straight line connecting the I50 values for each drug alone (dotted line in FIG. 2). […]

[5] = tested on: non-malignant mouse pituitary adenoma; settings: in vivo; cited from earlier work
[6] = tested on: cells (DNA breaks); assay: DNA breaks in cells incubated with DIME; assay type: cell-based
[7] = tested on: MDA-MB-231 human mammary cancer cells; assay: Colony formation (cell killing); assay type: cell-based
Procedure: as §1
e. Colony formation was quantitated as reported by. Each colony of 50 cells is the outgrowth from one cell, plated 10 days before colony counting.

[8] = tested on: metaphase arrest in cancer cells; assay: Metaphase block (mitotic block); assay type: cell-based
Source text: Metaphase was quantitated as reported by Mendeleyev et al., International Journal of Oncology 10:689-695 (1997).
Since vincristine and vinblastine were equivalent here we illustrate only DIME-vinblastine interaction on mitotic block.

[9] = tested on: nontumorigenic cells; assay: DIME uptake / permeation in nontumor cells; assay type: cell-based; settings: versus malignant counterparts
[10] = tested on: DIME-tolerant cells (DR6, DR7); assay: Cell growth of DIME-tolerant cells; assay type: cell-based, human
Procedure: as §1, with “Mathematical analysis of growth curves and median effects and isobolograms were carried out by published procedures (Chou et al. J. Theor. Biol. 65: 345-356 (1977), Chou et al. Eur. J. Biochem. 115: 207-216 (1981) and Chou et al. Adv. in Enzyme Regulation 22:27-55 (1984)) and error bars indicate SD=Σx^2 +L -(Σx)^2 /n where X is the numerical results with n=3-5.” left out

[11] = tested on: caspase 3; assay: Caspase 3 in cell-free extracts treated with drugs; assay type: biochemical; settings: results not shown

For `COC(=O)c1cc(I)c(Oc2ccc(OC)cc2)c(I)c1` [DIME, methyl 3,5-diiodo-4-(4'-methoxyphenoxy) benzoate], the “Inhibition of biosynthetic pathways of DNA, RNA or proteins” value [1] is given as “nor does it inhibit the biosynthetic pathways of DNA, RNA or proteins”, the Metabolic action [1] is given as “no metabolic action” and the “Inhibition of uptake of iodine into the thyroid” value [2] is given as 15%. For the same compound, the Binding to microtubules [3] was “bind to microtubules”, the “Growth rate with single drug” value [4] was “do not elicit effects that exceed the SD of average cell growth rates; also recorded: fall within SD values” and the “Growth of non-malignant mouse pituitary tumor” value [5] was “no inhibitory activity”. For the same compound, the DNA breaks [6] was “induces DNA breaks”, the “Inhibition of colony formation, DIME versus DIPE” value ([7]; FIG. 4a) was “equivalency; also recorded: Equivalent effectivity” and the “Reduction of colony formation in parent cell line (factor)” value ([7]; FIG. 8, parent (wild type) cell line) was 10^3. For the same compound, the M-block [8] was “induces M-block”, the “DIME uptake / permeability of nontumor cells” value [9] was “impermeable to DIME; also recorded: take up significantly less DIME” and the “Doubling time of DIME-tolerant cells after removal of DIME” value ([10]; DIME removed) was 40 to 45 h. For the same compound, the “Doubling time of DIME-tolerant cells” value ([10]; in the presence of 1.5 μM DIME, cancer cells 20 hrs) was 70 to 78 h and the “Caspase 3 increase in cell-free extracts” value [11] was “do not show an increase in caspase 3”.
